# Test results: patent US8796327B2, “Method for inhibiting production of cytokines of T helper cell type II and/or inhibiting production of chemokines using brazilin” (China Medical University, priority 2010, dated 2014)
# Assays:
# [1] = system: IL-5 mRNA; assay: Real-time PCR of IL-5 mRNA in EL-4 T lymphoma cells; format: cell-based, mouse; details: for Expression level of IL-5 mRNA: PMA + cAMP stimulated EL-4 cells, corrected to HPRT
# Method: Then, at a density of 5×10^5 counts/ml, the T lymphoma cells were bred in a six-well culture dish, and at the 0th minute, brazilin of different concentrations (0.3, 1, 3, 10, or 30 micromole (μM)) was added into the cell culture solution at an amount of 1 μl/ml-cell culture solution. Then, the cells were put into the incubator to be cultured therein. 30 minutes later, at an amount of 1 μl/ml-cell culture solution, 5 μg/ml PMA and cAMP at a 250 mmol concentration were added to the cell culture solution to stimulate the expression of IL-4 and IL-5 of the T lymphoma cells. During the process of cell culture, the trypan blue exclusion assay was employed to observe effect of the brazilin on the cell viability, results of which are shown in Table 1 and FIG. 1.
# Expression of mRNA of IL-4, IL-5, GATA-3, c-maf, and T-bet were analyzed in a quantitative way through real-time polymerase chain reaction (PCR) by extracting RNA in the cells obtained in Experiment A (using an RNA purifying kit), converting the RNA into cDNA through reverse transcription, and using an ABI PRISM 7700 sequence detector (Applied Biosystems, Foster City, Calif., America) to analyze the gene expression of mRNA. The PCR was carried out under the following conditions: 50° C., 2 minutes; 95° C., 10 minutes; 60° C., 1 minute; then repeating this cycle forty times. A threshold cycle (or referred to as Ct) was used to represent the expression level of each gene, and an expression level of hypoxanthine-guanine phosphoribosy transferase (HPRT) genes of the endogenous control group was used for correction of the expression level of mRNA.
# [2] = system: mice with asthma; assay: Airway (pulmonary) resistance determination, invasive body plethysmography with methacholine; format: in vivo, BALB/c mice; details: for pulmonary resistance Rrs (cm H2O/ml): OVA-sensitized BALB/c mice
# Method: In Example 2, mice with asthma were used to conduct in vivo experiments, and ovalbumin (OVA) was used as an allergen.
# The mice were sensitized (or challenged) according to the steps shown in FIG. 9 (see Lee et al., Lentiviral-mediated GATA-3 RNAi decreases allergic airway inflammation and hyperresponsiveness. Molecular Therapy, 2008; 16:60-65, which is incorporated herein in its entirety by reference). First, 50 μg OVA (using 2 mg alumina (Alum, Alumlmuject, Pierce Chemical, Rockford, Ill., USA) as an adjuvant) was injected into six to eight-week-old BALB/c female mice (from National Laboratory Animal Center, Taiwan) by intraperitoneal injection (i.p.). At 0th, 14th, and 28th day, the mice were injected with OVA at the same dosage. Before the administration of OVA at the forty-first and the forty-second days, different dosages of brazilin (high dose: 430 μg/mice; low dose: 43 μg/mice) were administrated to the mice by intraperitoneal injection (i.p.) or intratracheal instillation (i.t.). During the fortieth to the forty-second days, 100 μg OVA was dissolved in 40 μl PBS, and was administrated to the mice by intranasal instillation (i.n.) (once everyday, for three days). At the forty-third day, airway hyperresponsiveness of the mice was observed. At the forty-sixth day, the mice were sacrificed and used to conduct the following Experiments E to G During the above procedure, it was observed if any toxicity response arises after the administration of brazilin to the mice. In this experiment, the mice administrated with OVA were used as a positive control, and the mice not administrated with OVA were used as a negative control.
# Airway (pulmonary) resistance determination was carried out by conducting invasive body plethysmography according to the Glaab's method (see Glaab et al., Repetitive measurements of pulmonary mechanics to inhaled cholinergic challenge in spontaneously breathing mice. J Appl Physiol, 2004; 97:1104-1111, which is incorporated herein in its entirety by reference). In this method, the increase of pulmonary resistance of mice administrated with methacholine is observed.
# First, BALB/c mice were anesthetized with 70 to 90 mg/kg-body weight of pentobarbital sodium (Sigma), and the trachea of the mice were cut to generate a bore, and the mice were subjected to external ventilation (150 breaths/minute) with a ventilator (Harvard Rodent Ventilator, model 683, Southnatick, Mass., USA) controlled by a computer to maintain the tidal volume at 0.3 ml and the terminal expiring positive pressure at 3 to 4 cm-H2O. A PE-50 pipeline was inserted into the gullets and reached to the chest position of the mice, and the pipeline was connected to a pressure transducer (LDS GOULD, Valley View, Ohio, USA), and the pressure, air flow rate, and the variation of air capacity in the lungs of the mice were recorded. Software (Model PNM-PCT100W, LDS PONEMAH Physiology Platform, LDS GOULD) was used to analyze the airway resistance. An atomizer was used to generate methacholine spray, which was then administrated to the mice via the ventilator. The data was obtained by deducting the pulmonary resistance (0.45 cm H2O.s.ml^−1) gained by the pipeline inserted into the trachea of the mice, wherein pulmonary resistance RL ratio=RL after methacholine nebulization/RL after PBS nebulization.
compound,measurement,setting,value
Oc1ccc2c(c1)OC[C@]1(O)Cc3cc(O)c(O)cc3[C@H]21 [brazilin],expression of mRNA of IL-5,"[1]; EL-4 cells, result in words",inhibited
same,Expression level of IL-5 mRNA,[1]; brazilin 0.3 μM,1397 ± 172.2
same,Expression level of IL-5 mRNA,[1]; brazilin 1 μM,1225 ± 47.23
same,Expression level of IL-5 mRNA,[1]; brazilin 3 μM,1009 ± 77.66
same,Expression level of IL-5 mRNA,[1]; brazilin 10 μM,926.2 ± 40.70
same,Expression level of IL-5 mRNA,[1]; brazilin 30 μM,594.8 ± 252.9
same,pulmonary resistance Rrs (cm H2O/ml),"[2]; methacholine 3.125 mg/ml, High dose (430 μg/mice)",2.535 ± 0.1251 cm H2O/ml
same,pulmonary resistance Rrs (cm H2O/ml),"[2]; methacholine 3.125 mg/ml, Low dose (43 μg/mice)",2.237 ± 0.1567 cm H2O/ml
same,pulmonary resistance Rrs (cm H2O/ml),"[2]; methacholine 6.25 mg/ml, High dose (430 μg/mice)",2.680 ± 0.1676 cm H2O/ml
same,pulmonary resistance Rrs (cm H2O/ml),"[2]; methacholine 6.25 mg/ml, Low dose (43 μg/mice)",2.206 ± 0.0665 cm H2O/ml
same,pulmonary resistance Rrs (cm H2O/ml),"[2]; methacholine 12.5 mg/ml, High dose (430 μg/mice)",3.247 ± 0.1368 cm H2O/ml
same,pulmonary resistance Rrs (cm H2O/ml),"[2]; methacholine 12.5 mg/ml, Low dose (43 μg/mice)",2.432 ± 0.1259 cm H2O/ml
same,pulmonary resistance Rrs (cm H2O/ml),"[2]; methacholine 25 mg/ml, High dose (430 μg/mice)",3.691 ± 0.1542 cm H2O/ml
same,pulmonary resistance Rrs (cm H2O/ml),"[2]; methacholine 25 mg/ml, Low dose (43 μg/mice)",2.869 ± 0.1831 cm H2O/ml
same,airway resistance of the mice,"[2]; methacholine challenge, BALB/c mice, result in words",reduced
